Experiment: Intrinsic Dissolution Rate (IDR) at pH 6.8 of the cyclodextrin complexes (Sotax intrinsic dissolution assembly, USP<1087>)
Format: physicochemical
Conditions: 100 rpm
Experimental: Data: Intrinsic Dissolution Rate (IDR) at pH 6.8 of the Cyclodextrin Complexes
The intrinsic dissolution rate was measured with a Sotax intrinsic dissolution assembly according to the procedure described in USP<1087>. The 8 mm diameter disc was formed from approximately 150 mg of cyclodextrin complex and compressed at a force of 5 tons for 30 seconds using a benchtop hydraulic press. The dissolution media was 1000 mL of water containing 31.6 mL of 1 M hydrochloric acid solution and 2.0 g of sodium chloride, which was adjusted to pH 6.8 with Tris/Acetate buffer, the dissolution volume was 900 mL at 37° C. and the rotating speed was 100 rpm. Detection was performed by flow through UV sampling every 2 minutes for 1 hour at 245 nm with a 1 cm path length.

IDR relative to the Maleate salt of Compound 1 (pH 6.8, 37° C., ratio to the maleate salt): 1 | IDR (pH 6.8 dissolution media, 900 mL, 37° C., 8 mm disc, UV 245 nm): 0.057 mg/min/cm^2
Structure (SMILES): CN(CCOc1ccc(CC2SC(=O)NC2=O)cc1)c1ccccn1.O=C(O)/C=C\C(=O)O (centres unmarked) [Maleate salt of Compound 1, 5-[4-[2-(N-methyl-N-(2-pyridyl)amino)ethoxy]benzyl]thiazolidine-2,4-dione, maleate salt]

— patent US20060094691A1, “Inclusion complexes of rosiglitazone” (priority 2002, published 2006)
